Data set [1] can be described thus: Cytotoxicity (CC50) in uninfected MRC-5 cells, XTT dye reduction. The following applies: human, MRC-5 cells, uninfected (mock-infected). It is filed as cell-based, human. On the procedure:
Echovirus type 11 (ECHO 11) was purchased from ATCC (Rockville, Md.). Virus stocks were propagated and antiviral assays were performed in MRC-5 cells (ATCC). Cells were grown in minimal essential medium with 10% fetal bovine serum (Life Technologies, Gaithersburg, Md.). The ability of the compounds of this invention to protect cells against ECHO 11 infection was measured by the XTT dye reduction method (Weislow et al., J. Natl. Cancer Inst. (1989), vol. 81, 577-586). MRC-5 cells were infected with ECHO 11 at an m.o.i. of 0.003 or 0.004, respectively, or mock-infected with medium only. Infected or uninfected cells were added at 1×10^4 cells per well and incubated with appropriate concentrations of compound. Four days later, XTT/PMS was added to test plates, and the amount of formazan produced was quantified spectrophotometrically at 450/650 nm. […] The therapeutic index (TI) was calculated by dividing the CC50 by the EC50. Activity of the compounds against enterovirus type 70 (EV 70) may be measured by the same assay as described above in this section. Enterovirus type 70 (EV 70) may be obtained from the American Type Culture Collection ATCC (Rockville, Md.).
In general terms: Tetrazolium dyes change colour on reduction, which living cells bring about.

Data set [2] has as its system H1-HeLa cells. Put plainly: Cytotoxicity (CC50) in mock-infected H1-HeLa cells, XTT dye reduction. Type of data set: cell-based, human. In short, it runs like this: (§1)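 H1-HeLa cells mock-infected, read by XTT/PMS formazan at 450/650 nm.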
Experiment in data set [3]: as above
The following applies: human; for CC50: line of CVB2. It is filed as cell-based, human. In short, it runs like this: as §1

In data set [4] the test system is coxsackievirus B5 (CVB5). Nature of the data set: Anticoxsackieviral cell culture assay (EC50), CVB5. It is filed as cell-based. The following applies: Enterovirus B.
The test system of data set [5] is Coxsackievirus type A-21 (CAV-21). Put plainly: Anticoxsackieviral cell culture assay (XTT, EC50), CAV-21. It is filed as cell-based, coxsackievirus A-21 in H1-HeLa cells. As to conditions: Coxsackievirus. On the procedure: Anticoxsackieviral Cell Culture Assay:
Coxsackievirus types A-21 (CAV-21) and B3 (CVB3) were purchased from American Type Culture Collection (ATCC, Rockville, Md.). Virus stocks were propagated and antiviral assays were performed in H1-HeLa cells (ATCC). Cells were grown in minimal essential medium with 10% fetal bovine serum (Life Technologies, Gaithersburg, Md.). The ability of the compounds of this invention to protect cells against either CAV-21 or CVB3 infection was measured by the XTT dye reduction method. This method is described in Weislow et al., J. Natl. Cancer Inst. (1989), vol. 81, 577-586. H1-HeLa cells were infected with CAV-21 or CVB3 at a multiplicity of infection (m.o.i.) of 0.025 or 0.075, respectively, or mock-infected with medium only. H1-HeLa cells were plated at 4×10^4 cells per well in a 96-well plate and incubated with appropriate concentrations of the test compound. One day (CVB3) or two days (CAV-21) later, XTT/PMS was added to test plates and the amount of formazan produced was quantified spectrophotometrically at 450/650 nm. […] The therapeutic index (TI) was calculated by dividing the CC50 by the EC50.

For data set [6], the system named is echovirus 9 (ECHO-9). Nature of the data set: Anti-echoviral cell culture assay (EC50), ECHO-9. Type of data set: cell-based. The following applies: Enterovirus B.
Where [7] appears, read: H1-HeLa cells, mock-infected, line of HRV-14.
The mark [8] stands for this setting: H1-HeLa cells, uninfected (mock-infected), line of CAV-21.
The mark [9] stands for this setting: H1-HeLa cells, uninfected (mock-infected).
Where [10] appears, read: H1-HeLa cells, uninfected (mock-infected), line of CVB3.
[11] abbreviates: H1-HeLa cells, mock-infected, HRV-14.
[12] abbreviates: mock-infected (uninfected) H1-HeLa cells, CAV-21.
[13] abbreviates: mock-infected (uninfected) H1-HeLa cells, CVB3.

As usually defined, the CC50 is the concentration at which the toxic effect on the cells reaches its halfway point. Read a low CC50 as greater toxicity to the cells. Broadly, the EC50 is the concentration that produces a half-maximal response. Read a low EC50 as greater potency.

In data set [1] (line of ECHO-11), `CCOC(=O)/C=C/[C@H](C[C@@H]1CCNC1=O)NC(=O)[C@H](CC)n1cccc(NC(=O)c2cc(C)on2)c1=O` [Compound 26, trans-(2′S,3″″S,4S)-4-(2′-{3″-[(5′″-Methylisoxazole-3′″-carbonyl)amino]-2″-oxo-2″H-pyridin-1″-yl}butyrylamino)-5-(2″″-oxopyrrolidin-3″″-yl)pent-2-enoic Acid Ethyl Ester] registered a CC50 at 4 days above 10 µM. In addition, the cytotoxic concentration (CC50) in data set [2] (line of CVB5), in data set [2] (line of HRV-1A), in data set [2] (line of HRV-2), in data set [2] (line of HRV-3), in data set [2] (line of HRV-9) and in data set [2] (line of HRV-10) was above 10 µM in each case. For the same compound, the cytotoxic concentration (CC50) in data set [2] (line of HRV-11), in data set [2] (line of HRV-13), in data set [2] (line of HRV-16), in data set [2] (line of HRV-19), in data set [2] (line of HRV-23) and in data set [2] (line of HRV-25) was above 10 µM throughout. Moreover, the CC50 in data set [2] (line of HRV-39), in data set [2] (line of HRV-78), in data set [2] (line of HRV-87), in data set [2] (line of HRV-Hanks) and in data set [3] (setting [9]) was above 10 µM in each case. For the same compound, the CC50 at 2 days in data set [3] (setting [7]) and in data set [3] (setting [8]) was above 10 µM throughout. The compound further showed a CC50 at 1 day in data set [3] (setting [10]) above 10 µM. The EC50 came to 0.018 µM in data set [4], 0.121 µM in data set [5] and 0.015 µM in data set [6].

Turning to `C#CC[C@@H](C(=O)N[C@H](/C=C/C(=O)OCC)C[C@@H]1CCNC1=O)n1cccc(NC(=O)c2cc(C)on2)c1=O` [Compound 31, trans-(2′S,3″″S,4S)-4-(2′-{3″-[(5′″-Methyl-isoxazole-3′″-carbonyl)amino]-2″-oxo-2″H-pyridin-1″-yl}pent-4′-ynoyl-amino)-5-(2″″-oxopyrrolidin-3″″-yl)pent-2-enoic Acid Ethyl Ester], in data set [1] (line of ECHO-6), the cytotoxic concentration (CC50) at 4 days was above 10 µM. Also, the CC50 in data set [2] (line of CVB5), in data set [2] (line of HRV-1A), in data set [2] (line of HRV-2), in data set [2] (line of HRV-3), in data set [2] (line of HRV-9) and in data set [2] (line of HRV-10) was above 10 µM throughout. Also, the CC50 in data set [2] (line of HRV-11), in data set [2] (line of HRV-13), in data set [2] (line of HRV-16), in data set [2] (line of HRV-19), in data set [2] (line of HRV-23) and in data set [2] (line of HRV-25) was above 10 µM throughout. The CC50 in data set [2] (line of HRV-39), in data set [2] (line of HRV-78), in data set [2] (line of HRV-87), in data set [2] (line of HRV-Hanks) and in data set [3] (setting [9]) was above 10 µM in each case. In addition, the CC50 at 2 days in data set [3] (setting [7]) and in data set [3] (setting [8]) was above 10 µM in each case. This compound yielded a CC50 at 1 day in data set [3] (setting [10]) above 10 µM. Also, the values for the concentration giving a half-maximal response (EC50) in data set [4], in data set [5] and in data set [6] were 0.047 µM, 0.161 µM and 0.012 µM, respectively.

As to `CCOC(=O)/C=C/[C@H](C[C@@H]1CCNC1=O)NC(=O)[C@H](Cc1ccc(F)c(F)c1)n1cccc(NC(=O)c2cc(C)on2)c1=O` [Compound 33, trans-(2′S,3′″″S,4S)-4-(3′-(3″,4″-Difluorophenyl)-2′-{3′″-[(5″″-methylisoxazole-3″″-carbonyl)amino]-2′″-oxo-2′″H-pyridin-1′″-yl}propionylamino)-5-(2′″″-oxopyrrolidin-3′″″-yl)pent-2-enoic Acid Ethyl Ester], in data set [1] (line of ECHO-11), the CC50 at 4 days is above 10 µM. The CC50 in data set [2] (line of CVB5), in data set [2] (line of HRV-2), in data set [2] (line of HRV-3), in data set [2] (line of HRV-9), in data set [2] (line of HRV-11) and in data set [2] (line of HRV-13) was above 10 µM each time. For the same compound, the half-maximal cytotoxic concentration (CC50) in data set [2] (line of HRV-16), in data set [2] (line of HRV-19), in data set [2] (line of HRV-23), in data set [2] (line of HRV-25), in data set [2] (line of HRV-39) and in data set [2] (line of HRV-78) was above 10 µM each time. For the same compound, the CC50 in data set [2] (line of HRV-87), in data set [2] (line of HRV-Hanks) and in data set [3] (setting [9]) was above 10 µM each time. In addition, the CC50 at 2 days in data set [3] (setting [7]) and in data set [3] (setting [8]) was above 10 µM throughout. Also, the half-maximal cytotoxic concentration (CC50) at 1 day in data set [3] (setting [10]) was above 10 µM. The EC50 in data set [4] amounted to 0.025 µM; in data set [5] it was 0.004 µM; in data set [6], 0.003 µM.

Compound `C#CC[C@@H](C(=O)N[C@H](/C=C/C(=O)OC(C)(C)C)C[C@@H]1CCNC1=O)n1cccc(NC(=O)c2cc(C)on2)c1=O` [Compound 41, trans-(2′S,3′″″S,4S)-4-[2′-(3″-{[1′″-(5″″-Methylisoxazol-3″″-yl)methanoyl]amino}-2′″-oxo-2′″H-pyridin-1′″-yl)pent-4″-ynoylamino]-5-(2′″″-oxopyrrolidin-3′″″-yl)pent-2-enoic Acid tert-Butyl Ester] returned a CC50 at 4 days in data set [1] (line of ECHO-11) above 10 µM. In addition, the CC50 in data set [2] (line of CVB5), in data set [2] (line of HRV-2), in data set [2] (line of HRV-3), in data set [2] (line of HRV-9), in data set [2] (line of HRV-16) and in data set [2] (line of HRV-25) was above 10 µM throughout. The CC50 in data set [2] (line of HRV-39), in data set [2] (line of HRV-87) and in data set [3] (setting [9]) was above 10 µM throughout. Also, the CC50 at 2 days in data set [3] (setting [7]) and in data set [3] (setting [8]) was above 10 µM throughout. Further, in data set [3] (setting [10]), the half-maximal cytotoxic concentration (CC50) at 1 day is above 10 µM. The EC50 in data set [4] stood at 0.199 µM; in data set [5] it was 0.593 µM; in data set [6], 0.106 µM.

`CC[C@@H](C(=O)N[C@H](/C=C/C(=O)OCc1ccccc1)C[C@@H]1CCNC1=O)n1cccc(NC(=O)c2cc(C)on2)c1=O` [Compound 62, trans-(2′S,3′″″S,4S)-4-[2′-(3″-{[1′″-(5″″-Methylisoxazol-3″″-yl)methanoyl]amino}-2′″oxo-2′″H-pyridin-1′″-yl)butanoylamino]-5-(2′″″-oxopyrrolidin-3′″″-yl)pent-2-enoic Acid Benzyl Ester]: the CC50 in data set [2] (HRV-1A), in data set [2] (HRV-2), in data set [2] (HRV-3), in data set [2] (HRV-9), in data set [2] (HRV-10) and in data set [2] (HRV-11) was above 10 µM each time. Also, the CC50 in data set [2] (HRV-13), in data set [2] (HRV-16), in data set [2] (HRV-19), in data set [2] (HRV-23), in data set [2] (HRV-25) and in data set [2] (HRV-39) was above 10 µM in each case. The CC50 in data set [2] (HRV-78) and in data set [2] (HRV-Hanks) was above 10 µM each time. Also, the CC50 at 2 days in data set [3] (setting [11]) and in data set [3] (setting [12]) was above 10 µM each time. Also, the CC50 at 1 day in data set [3] (setting [13]) is above 10 µM. For the same compound, in data set [5] (H1-HeLa), a half-maximal response (EC50) required 0.298 µM.

For `C#CC[C@@H](C(=O)N[C@H](/C=C/C(=O)OCc1ccccc1)C[C@@H]1CCNC1=O)n1cccc(NC(=O)c2cc(C)on2)c1=O` [Compound 63, trans-(2′S,3′″″S,4S)-4-[2′-(3″-{[1′″-(5″″-Methylisoxazol-3″″-yl)methanoyl]amino}-2′″-oxo-2′″H-pyridin-1′″-yl)pent-4″-ynoylamino]-5-(2′″″-oxopyrrolidin-3′″″-yl)pent-2-enoic Acid Benzyl Ester], the CC50 in data set [2] (HRV-1A), in data set [2] (HRV-2), in data set [2] (HRV-3), in data set [2] (HRV-9), in data set [2] (HRV-10) and in data set [2] (HRV-11) was above 10 µM in each case. The CC50 in data set [2] (HRV-13), in data set [2] (HRV-16), in data set [2] (HRV-19), in data set [2] (HRV-23), in data set [2] (HRV-25) and in data set [2] (HRV-39) was above 10 µM throughout. Further, the CC50 in data set [2] (HRV-78) and in data set [2] (HRV-Hanks) was above 10 µM throughout. The CC50 at 2 days in data set [3] (setting [11]) and in data set [3] (setting [12]) was above 10 µM in each case. Also, in data set [3] (setting [13]), the CC50 at 1 day was above 10 µM. Moreover, the EC50 in data set [5] (H1-HeLa) came out at 0.153 µM.
